Experiments:
[1] = test system: endometriotic lesions from human endometrial tissue; conditions: earlier work using this model; positive control; cited from earlier work
[2] = cited from earlier work
[3] = test system: endometriotic-like foci; assay: Rat model of experimentally induced endometriosis; assay type: in vivo; conditions: for comparison; data not shown
Description: The control group received the vehicle only.

[4] = test system: human endometrial tissue organ cultures; assay: Proliferative organ culture model (MMP-3 Western blot); assay type: cell-based
Description: Normal endometrial tissues were acquired just prior to ovulation by biopsy from a donor population (no history of endometriosis) and from women with surgically confirmed endometriosis. Informed consent was obtained prior to biopsy and the use of human tissues was approved by Vanderbilt University's Institutional Review Board and Committee for the Protection of Human Subjects.
Endometrial biopsies were dissected into small cubes (˜1×1 mm^3) and 8-10 pieces of tissue per treatment group were suspended in tissue culture inserts. Organ cultures were maintained a total of 72 hrs at 37° C. in DME/F-12 media with serum supplements. Tissue treatments included 17β-estradiol (E), E plus progesterone (P), or E plus medroxy progesterone acetate (MPA) with and without the JNK inhibitor. Cultures were maintained for 24 hours in E only until the initiation of experimental conditions. JNK inhibitor was used at a concentration of 5 or 15 μM and MPA was used at a concentration of 50, 100 or 250 μM.
Media was collected from organ cultures and secreted proteins quantified using the Coomassie Plus Protein Assay (Pierce) and 20 μg total protein subjected to 10% SDS-PAGE. Proteins were transferred to PVDF membrane and blocked in PBS with 10% non-fat milk and 0.05% Tween-20. […]

## CC(=O)[C@H]1CC[C@H]2[C@@H]3CCC4=CC(=O)CC[C@]4(C)[C@H]3CC[C@]12C [progesterone]
[1]
  disease progression: prevents disease progression

## C#C[C@]1(O)CC[C@H]2[C@@H]3CCC4=Cc5oncc5C[C@]4(C)[C@H]3CC[C@@]21C [Danazol]
[2]
  patients suffering from pain with improved symptoms: 66-100%

## antide
[3]
  regression of established endometriotic lesions: about 85%

## CC(=O)O[C@]1(C(C)=O)CC[C@H]2[C@@H]3C[C@H](C)C4=CC(=O)CC[C@]4(C)[C@H]3CC[C@@]21C [MPA, medroxy progesterone acetate]
[4]; endometrial cultures from endometriosis patients
  sensitivity to MPA treatment: failed to regress
[4]; endometrial cultures from normal volunteers
  sensitivity to MPA treatment: sensitive

— US8658640B2, “JNK inhibitors for the treatment of endometriosis” (Merck Serono SA, priority 2005, dated 2014)
